Data from patent EP4617273A1, “FUSED TRICYCLIC PARP1 INHIBITOR, PREPARATION METHOD THEREFOR, AND USE THEREOF” (Haihe Biopharma Co., Ltd., priority 2022, dated 2024).

Target: T1, recombinant human PARP2 protein (Homo sapiens, UniProt Q9UGN5)
T1 construct: purchased BPS 80502
Assay: PARP2 enzymatic inhibitory activity, histone substrate, chemiluminescent ELISA
Assay type: biochemical
Details: histone substrate, 500 µM NAD+ not added; read-out: PARP2 IC50
Procedure: The PARP2 inhibitory activity assay was performed as in Experimental Method 1, except that PARP1 solution in step 2 of "3. Ribosylation reaction" was replaced with recombinant human PARP2 solution, and 500 µM NAD+ was not added in step 5 of the ribosylation reaction. Table 1. IC50 for inhibition of PARP1/2 enzymes by compounds of the present invention

T1 sequence (Q9UGN5 whole entry): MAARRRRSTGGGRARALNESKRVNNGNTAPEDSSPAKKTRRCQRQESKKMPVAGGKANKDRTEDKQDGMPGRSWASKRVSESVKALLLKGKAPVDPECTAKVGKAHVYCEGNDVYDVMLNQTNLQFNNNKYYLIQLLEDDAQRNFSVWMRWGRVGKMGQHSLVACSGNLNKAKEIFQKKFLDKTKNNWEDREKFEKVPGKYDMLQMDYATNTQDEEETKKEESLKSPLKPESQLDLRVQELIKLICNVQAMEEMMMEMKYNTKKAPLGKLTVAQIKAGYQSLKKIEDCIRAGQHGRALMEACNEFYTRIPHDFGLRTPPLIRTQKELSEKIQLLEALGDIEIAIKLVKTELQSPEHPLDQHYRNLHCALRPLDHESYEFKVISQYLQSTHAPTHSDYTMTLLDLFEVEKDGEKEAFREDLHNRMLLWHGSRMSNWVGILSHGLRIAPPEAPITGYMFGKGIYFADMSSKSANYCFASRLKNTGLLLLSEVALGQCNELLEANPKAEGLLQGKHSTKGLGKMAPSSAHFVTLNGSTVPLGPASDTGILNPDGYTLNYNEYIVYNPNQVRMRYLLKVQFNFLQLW

SMILES | IC50
CNC(=O)c1ccc(N2CCN(C(C)c3ccc4c(c3)[nH]c(=O)c3cccn34)CC2)c(F)n1 (centres unmarked) [Compound 5] | 17.3 nM
CNC(=O)c1ccc(N2CCN(C(C)c3ccc4c(c3)[nH]c(=O)c3cccn34)CC2)cn1 (centres unmarked) [Compound 6] | 21.7 nM
CNC(=O)c1ccc(N2CCN(C(C)c3ccc4c([nH]c(=O)c5cccn54)c3F)CC2)c(F)n1 (centres unmarked) [Compound 7] | 204 nM
CNC(=O)c1ccc(N2CCN(C(C)c3ccc4c([nH]c(=O)c5cccn54)c3F)CC2)cn1 (centres unmarked) [Compound 8] | 118 nM
CNC(=O)c1ccc(N2CCN(C(C)c3ccc4c([nH]c(=O)c5ccnn54)c3F)CC2)c(F)n1 (centres unmarked) [Compound 13] | 3150 nM
CNC(=O)c1ccc(N2CCN(C(C)c3ccc4c(c3)[nH]c(=O)c3cnn(C)c34)CC2)c(F)n1 (centres unmarked) [Compound 15] | 313 nM
CCNC(=O)c1ccc(N2CCN(Cc3ccc4c(c3F)NC(=O)N3C[C@@H](C)N=C43)CC2)c(C)n1 [Compound 34] | 780 nM

System: MDA-MB-436 cells
Assay: MDA-MB-436 cell proliferation inhibition test (CellTiter-Glo, 7 days)
Assay type: cell-based
Details: Homo sapiens, MDA-MB-436, 168 h, 7 days incubation
Procedure: Human breast cancer MDA-MB-436 (purchased from ATCC) cells were cultured in DMEM medium (supplemented with 10% fetal bovine serum with 1% dual antibody) at 37 °C, 5% CO2. The cells were taken from the logarithmic growth phase, digested and prepare cell suspension witha certain concentration, which was inoculated into 96-well plates. 100 µL of cell suspension was added to each well of the 96-well plates, incubated overnight, then different concentrations of compounds were added, and the cells were incubated in the cell culture incubator for 7 days. At the end of incubation, 50 µL of CellTiter-Glo reagent was added to each well, mixed with a microplate and shaked for 2 min, and left at rt for 60 min, then the fluorescence value was read with a Spark® multimode microplate reader. […] Table 2. proliferation inhibitory activity of compounds of the present invention on MDA-MB-436 cells

SMILES | IC50
CNC(=O)c1ccc(N2CCN(Cc3ccc4c(c3)[nH]c(=O)c3cn(C)nc34)CC2)c(F)n1 [Compound 101] | 9.3 nM
CNC(=O)c1ccc(N2CCN(Cc3ccc4c(c3F)NC(=O)N3CCN=C43)CC2)c(F)n1 [Compound 123] | 27.4 nM
CNC(=O)c1ccc(N2CCN(Cc3ccc4c(c3F)NC(=O)N3CCN=C43)CC2)c(Cl)n1 [Compound 126] | 5.4 nM
CNC(=O)c1ccc(N2CCN(Cc3ccc4c(c3F)NC(=O)N3CCN=C43)CC2)c(C)n1 [Compound 129] | < 1.52 nM
CNC(=O)c1ccc(N2CCN(Cc3ccc4c(c3F)NC(=O)N3C[C@H](C)N=C43)CC2)c(F)n1 [Compound 133] | 28.7 nM
CNC(=O)c1ccc(N2CCN(Cc3ccc4c(c3F)NC(=O)N3CCCN=C43)CC2)c(C)n1 [Compound 140] | 12.8 nM
CNC(=O)c1ccc(N2CCN(Cc3ccc4c(c3F)NC(=O)N3C[C@H](F)CN=C43)CC2)c(C)n1 [Compound 145] | 8.9 nM
CNC(=O)c1ccc(N2CCN(Cc3ccc4c(c3F)NC(=O)N3C[C@H](F)CN=C43)CC2)c(Cl)n1 [Compound 146] | 12.4 nM
CNC(=O)c1ccc(N2CCN(Cc3ccc4c(c3F)NC(=O)N3CC(F)(F)CN=C43)CC2)c(F)n1 [Compound 148] | 3.6 nM
CNC(=O)c1ccc(N2CCN(Cc3ccc4c(c3F)NC(=O)N3C[C@H](C)N=C43)CC2)c(C)n1 [Compound 151] | 17.5 nM
CNC(=O)c1ccc(N2CCN(Cc3ccc4c(c3F)NC(=O)N3C[C@H](C)N=C43)CC2)c(Cl)n1 [Compound 152] | 21.5 nM
CNC(=O)c1ccc(N2CCN(Cc3ccc4c(c3F)NC(=O)N3C[C@@H](C)N=C43)CC2)c(C)n1 [Compound 153] | 8.1 nM
CCNC(=O)c1ccc(N2CCN(Cc3ccc4c(c3F)NC(=O)N3C[C@@H](C)N=C43)CC2)c(F)n1 [Compound 172] | 5.7 nM
CCNC(=O)c1ccc(N2CCN(Cc3ccc4c(c3F)NC(=O)N3CCCN=C43)CC2)c(Cl)n1 [Compound 183] | 9.2 nM
CCNC(=O)c1ccc(N2CCN(Cc3ccc4c(c3F)NC(=O)N3CC(F)(F)CN=C43)CC2)c(F)n1 [Compound 186] | 6.4 nM

Target: T2, Recombinant human PARP1 protein (Homo sapiens, UniProt P09874)
Assay: biochemical
Details: not given

T2 sequence (P09874 whole entry): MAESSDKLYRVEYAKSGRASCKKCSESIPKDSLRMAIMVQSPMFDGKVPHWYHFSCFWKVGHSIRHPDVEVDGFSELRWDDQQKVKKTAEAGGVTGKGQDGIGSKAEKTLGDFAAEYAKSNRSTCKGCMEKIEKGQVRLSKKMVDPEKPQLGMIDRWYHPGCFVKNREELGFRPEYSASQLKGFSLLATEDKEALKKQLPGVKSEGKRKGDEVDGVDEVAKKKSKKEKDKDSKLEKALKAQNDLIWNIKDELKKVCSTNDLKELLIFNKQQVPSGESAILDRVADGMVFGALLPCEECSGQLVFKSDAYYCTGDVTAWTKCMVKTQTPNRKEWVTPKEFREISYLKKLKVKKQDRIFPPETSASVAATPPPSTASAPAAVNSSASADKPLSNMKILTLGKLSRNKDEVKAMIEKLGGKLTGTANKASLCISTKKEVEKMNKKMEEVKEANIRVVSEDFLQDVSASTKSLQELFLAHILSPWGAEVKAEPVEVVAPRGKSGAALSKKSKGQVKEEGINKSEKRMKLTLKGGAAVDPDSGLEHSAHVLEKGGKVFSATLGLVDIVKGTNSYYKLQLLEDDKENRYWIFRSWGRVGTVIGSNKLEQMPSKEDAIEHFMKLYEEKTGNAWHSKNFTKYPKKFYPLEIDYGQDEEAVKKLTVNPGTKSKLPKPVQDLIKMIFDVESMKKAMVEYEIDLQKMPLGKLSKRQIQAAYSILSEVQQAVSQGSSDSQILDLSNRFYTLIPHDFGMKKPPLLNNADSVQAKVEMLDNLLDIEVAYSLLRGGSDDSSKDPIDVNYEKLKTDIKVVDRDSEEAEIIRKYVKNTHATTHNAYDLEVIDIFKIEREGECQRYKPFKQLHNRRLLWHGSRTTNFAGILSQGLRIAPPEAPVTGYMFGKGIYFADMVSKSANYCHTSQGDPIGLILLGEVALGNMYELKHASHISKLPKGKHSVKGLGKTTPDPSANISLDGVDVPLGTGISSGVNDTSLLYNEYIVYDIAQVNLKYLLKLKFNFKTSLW

SMILES | IC50
CNC(=O)c1ccc(N2CCN(C(C)c3ccc4c(c3)[nH]c(=O)c3cccn34)CC2)c(F)n1 (centres unmarked) [Compound 5] | 0.15 nM
CNC(=O)c1ccc(N2CCN(C(C)c3ccc4c(c3)[nH]c(=O)c3cccn34)CC2)cn1 (centres unmarked) [Compound 6] | 0.42 nM
CNC(=O)c1ccc(N2CCN(C(C)c3ccc4c([nH]c(=O)c5cccn54)c3F)CC2)c(F)n1 (centres unmarked) [Compound 7] | 0.38 nM
CNC(=O)c1ccc(N2CCN(C(C)c3ccc4c([nH]c(=O)c5cccn54)c3F)CC2)cn1 (centres unmarked) [Compound 8] | 2.04 nM
CNC(=O)c1ccc(N2CCN(C(C)c3ccc4c([nH]c(=O)c5ccnn54)c3F)CC2)c(F)n1 (centres unmarked) [Compound 13] | 2.87 nM
CNC(=O)c1ccc(N2CCN(C(C)c3ccc4c(c3)[nH]c(=O)c3cnn(C)c34)CC2)c(F)n1 (centres unmarked) [Compound 15] | 3.6 nM
CNC(=O)c1ccc(N2CCN(Cc3ccc4c(c3)[nH]c(=O)c3cnn(C)c34)CC2)c(F)n1 [Compound 16] | 0.22 nM
CNC(=O)c1ccc(N2CCN(C(C)c3ccc4c([nH]c(=O)c5cn(C)nc54)c3F)CC2)c(F)n1 (centres unmarked) [Compound 19] | 273 nM
CNC(=O)c1ccc(N2CCN(Cc3ccc4c([nH]c(=O)c5cnnn54)c3F)CC2)c(F)n1 [Compound 26] | 17.7 nM
CCNC(=O)c1ccc(N2CCN(Cc3ccc4c(c3F)NC(=O)N3C[C@@H](C)N=C43)CC2)c(C)n1 [Compound 34] | 1.83 nM
CNC(=O)c1ccc(N2CCN(Cc3ccc4c([nH]c(=O)c5sccc54)c3F)CC2)c(F)n1 [Compound 77] | 0.6 nM
CNC(=O)c1ccc(N2CCN(Cc3ccc4c([nH]c(=O)c5cscc54)c3F)CC2)c(F)n1 [Compound 80] | 0.85 nM
CC(c1ccc2c([nH]c(=O)c3ccnn32)c1F)N1CCN(c2ccc(C#N)cn2)CC1 (centres unmarked) [Compound 98] | 18.4 nM
CC(c1ccc2c([nH]c(=O)c3ccnn32)c1F)N1CCN(c2ccc(F)cc2F)CC1 (centres unmarked) [Compound 99] | 571 nM
CNC(=O)c1ccc(N2CCN(Cc3ccc4c(c3)[nH]c(=O)c3cn(C)nc34)CC2)c(F)n1 [Compound 101] | 1.7 nM
O=C(N[C@@H]1CCOC1)c1ccc(N2CCN(Cc3ccc4c([nH]c(=O)c5ccnn54)c3F)CC2)c(F)n1 [Compound 112] | 14.2 nM
CNC(=O)c1ccc(N2CCN(Cc3ccc4c(c3)[nH]c(=O)n3cc(C)nc43)CC2)c(F)n1 [Compound 117] | 0.5 nM
CNC(=O)c1ccc(N2CCN(Cc3ccc4c(c3F)NC(=O)N3CCN=C43)CC2)c(F)n1 [Compound 123] | 0.8 nM
CNC(=O)c1ccc(N2CCN(Cc3ccc4c(c3F)NC(=O)N3CCN=C43)CC2)c(Cl)n1 [Compound 126] | 1.3 nM
CNC(=O)c1ccc(N2CCN(Cc3ccc4c(c3C)NC(=O)N3CCN=C43)CC2)c(F)n1 [Compound 127] | 7.3 nM
CCNC(=O)c1ccc(N2CCN(Cc3ccc4c(c3F)NC(=O)N3CCN=C43)CC2)c(F)n1 [Compound 128] | 2.2 nM
Cc1nc(C(=O)NC2CC2)ccc1N1CCN(Cc2ccc3c(c2F)NC(=O)N2CCN=C32)CC1 [Compound 130] | 3.4 nM
CNC(=O)c1ccc(N2CCN(Cc3ccc4c(c3F)NC(=O)N3C[C@H](C)N=C43)CC2)c(F)n1 [Compound 133] | 1.2 nM
CNC(=O)c1ccc(N2CCN(Cc3cc4c(cc3Cl)C3=NCCN3C(=O)N4)CC2)c(F)n1 [Compound 135] | 9.6 nM

SMILES | IC50
CNC(=O)c1ccc(N2CCN(Cc3ccc4c(c3F)NC(=O)N3CCCN=C43)CC2)c(C)n1 [Compound 140] | 1.5 nM
CNC(=O)c1ccc(N2CCN(Cc3ccc4c(c3F)NC(=O)N3CC[C@@H](C)N=C43)CC2)c(F)n1 [Compound 143] | 4.6 nM
CNC(=O)c1ccc(N2CCN(Cc3ccc4c(c3F)NC(=O)N3C[C@H](F)CN=C43)CC2)c(C)n1 [Compound 145] | 0.6 nM
CNC(=O)c1ccc(N2CCN(Cc3ccc4c(c3F)NC(=O)N3C[C@H](C)N=C43)CC2)c(C)n1 [Compound 151] | 1.1 nM
CNC(=O)c1ccc(N2CCN(Cc3ccc4c(c3F)NC(=O)N3C[C@H](C)N=C43)CC2)c(Cl)n1 [Compound 152] | 1.5 nM
CNC(=O)c1ccc(N2CCN(Cc3ccc4c(c3F)NC(=O)N3C[C@@H](C)N=C43)CC2)c(C)n1 [Compound 153] | 1.3 nM
CCNC(=O)c1ccc(N2CCN(Cc3ccc4c(c3F)NC(=O)N3CCCN=C43)CC2)c(F)n1 [Compound 171] | 0.7 nM
CCNC(=O)c1ccc(N2CCN(Cc3ccc4c(c3F)NC(=O)N3C[C@@H](C)N=C43)CC2)c(F)n1 [Compound 172] | 0.7 nM
CCNC(=O)c1ccc(N2CCN(Cc3ccc4c(c3F)NC(=O)N3CCCN=C43)CC2)c(Cl)n1 [Compound 183] | 0.36 nM
CCNC(=O)c1ccc(N2CCN(Cc3ccc4c(c3F)NC(=O)N3CCCN=C43)CC2)c(C)n1 [Compound 184] | 1.13 nM
CCNC(=O)c1ccc(N2CCN(Cc3ccc4c(c3F)NC(=O)N3CC(F)(F)CN=C43)CC2)c(F)n1 [Compound 186] | 0.58 nM
C[C@@H]1CN2C(=O)Nc3c(ccc(CN4CCN(c5ccc(C#N)cn5)CC4)c3F)C2=N1 [Compound 187] | 0.95 nM
CNC(=O)c1ccc(N2CCN(Cc3ccc4c(c3)NC(=O)N3C[C@@H](C)N=C43)CC2)c(Cl)n1 [Compound 189] | 0.67 nM
CNC(=O)c1ccc(N2CCN(Cc3ccc4c(c3)NC(=O)N3C[C@@H](C)N=C43)CC2)c(C)n1 [Compound 190] | 0.34 nM
CNC(=O)c1ccc(N2CCN(Cc3ccc4c(c3)NC(=O)N3CCCN=C43)CC2)c(C)n1 [Compound 192] | 1 nM
CNC(=O)c1ccc(N2CCN(Cc3ccc4c(c3F)NC(=O)N3C[C@@H](C)N=C43)CC2)cn1 [Compound 193] | 1.7 nM
CNC(=O)c1ccc(C2CCN(Cc3ccc4c(c3F)NC(=O)N3C[C@@H](C)N=C43)CC2)c(Cl)n1 [Compound 194] | 2.2 nM
O=C1Nc2c(ccc(CN3CCN(c4ccc(F)cc4F)CC3)c2F)C2=NCCCN12 [Compound 195] | 40.8 nM
CNC(=O)c1ccc(N2CCN(Cc3ccc4c(c3F)NC(=O)N3C[C@@H](C)N=C43)[C@H](C)C2)c(Cl)n1 [Compound 197] | 0.3 nM
C[C@@H]1CN2C(=O)Nc3c(ccc(CN4CCN(c5ccc(C(=O)NCC(F)F)nc5Cl)CC4)c3F)C2=N1 [Compound 198] | 0.5 nM
CNC(=O)c1ccc(O[C@H]2CN(Cc3ccc4c(c3F)NC(=O)N3C[C@@H](C)N=C43)[C@@H]2C)cn1 [Compound 199] | 0.6 nM
O=C(NC1CC1)c1ccc(N2CCN(Cc3ccc4c(c3F)NC(=O)N3CCCN=C43)CC2)c(Cl)n1 [Compound 202] | 1.6 nM
CNC(=O)c1ccc(N2CCN(Cc3ccc4c(c3F)NC(=O)N3C[C@@H](C)N=C43)CC2)c(C(F)F)n1 [Compound 203] | 1.4 nM
CNC(=O)c1ccc(N2CCN(Cc3ccc4c(c3F)NC(=O)N3CCCN=C43)CC2)c(C(F)F)n1 [Compound 204] | 1.5 nM

Target: T2, Recombinant human PARP1 protein
Assay: PARP1 enzymatic inhibitory activity, histone substrate, chemiluminescent ELISA
Details: PARP2 IC50 over PARP1 IC50

SMILES | PARP1/2 Fold selectivity
CNC(=O)c1ccc(N2CCN(C(C)c3ccc4c(c3)[nH]c(=O)c3cccn34)CC2)c(F)n1 (centres unmarked) [Compound 5] | 115.3
CNC(=O)c1ccc(N2CCN(C(C)c3ccc4c(c3)[nH]c(=O)c3cccn34)CC2)cn1 (centres unmarked) [Compound 6] | 51.7
CNC(=O)c1ccc(N2CCN(C(C)c3ccc4c([nH]c(=O)c5cccn54)c3F)CC2)c(F)n1 (centres unmarked) [Compound 7] | 536.3
CNC(=O)c1ccc(N2CCN(C(C)c3ccc4c([nH]c(=O)c5cccn54)c3F)CC2)cn1 (centres unmarked) [Compound 8] | 57.9
CNC(=O)c1ccc(N2CCN(C(C)c3ccc4c([nH]c(=O)c5ccnn54)c3F)CC2)c(F)n1 (centres unmarked) [Compound 13] | 1098.6
CNC(=O)c1ccc(N2CCN(C(C)c3ccc4c(c3)[nH]c(=O)c3cnn(C)c34)CC2)c(F)n1 (centres unmarked) [Compound 15] | 86.8
CCNC(=O)c1ccc(N2CCN(Cc3ccc4c(c3F)NC(=O)N3C[C@@H](C)N=C43)CC2)c(C)n1 [Compound 34] | 426.4
